{"source": "paper PMC11730522", "about": "(BMC Pharmacology & Toxicology, 2025)", "assay": "Pharmacokinetic study, plasma EZ levels by HPLC", "assay_type": "in vivo, rats"}
{"smiles": "O=C1[C@H](CC[C@H](O)c2ccc(F)cc2)[C@@H](c2ccc(O)cc2)N1c1ccc(F)cc1", "note": "[EZ, Ezetimibe]", "values": [{"measurement": "drop of plasma level of EZ from the highest level", "setting": "after 4 h", "value": 50, "unit": "%"}, {"measurement": "Tmax", "setting": "rat, plasma, po, 10 mg/kg", "value": 2, "unit": "h"}, {"measurement": "peak plasma concentration of EZ", "setting": "rats, oral", "value": "24.36 ± 1.36", "unit": "µg/mL"}]}
